# Laboratory results published in patent US20250186563A1, “UNIT DOSE FORMULATION OF ANTIDOTES FOR FACTOR XA INHIBITORS AND METHODS OF USING THE SAME” (Alexion Pharmaceuticals, Inc., priority 2009, published 2025).
# Assays:
# [1] = tested on: clot formation in human platelet poor plasma; experiment: Clotting prolongation assay, 96-well plate format (OD405 turbidity); type: biochemical; settings: 1 U/ml enoxaparin; aPTT reagent
# [2] = tested on: enoxaparin-induced anticoagulation; experiment: Enoxaparin-induced anticoagulation and its reversal in rats; type: in vivo
# [3] = tested on: blood loss due to enoxaparin; parameters: species or system Sprague-Dawley rats; settings: in vivo
# [4] = cited from earlier work
# [5] = tested on: blood loss due to fondaparinux; experiment: Rat tail transection blood loss model, fondaparinux; type: in vivo, Sprague-Dawley rats; settings: fondaparinux 25 mg/kg IV bolus, protamine 0.9 mg IV bolus
# [6] = tested on: thrombin generation; experiment: Thrombin generation assay in platelet poor plasma; type: biochemical, human; settings: betrixaban 250 nM; in presence of rfVIIa (50-200 nM) and tissue factor; PPP
# [7] = tested on: aPTT of pooled human plasma; experiment: aPTT human plasma clotting assay (MLA Electra 800 coagulation timer); type: biochemical
# [8] = In vivo mouse model, PK-PD of betrixaban with antidote; parameters: species or system C57Bl/6 mice; settings: male, C57Bl/6, mouse, plasma, oral, Betrixaban (ng/mL), […] after 15 mg/kg betrixaban PO, 5 min after antidote injection
# [9] = Sustained reversal of betrixaban-induced anticoagulation in rats; type: in vivo; settings: rat, plasma, intravenous
# [10] = tested on: fXa (bovine fXa); experiment: Plasma anti-fXa activity assay (modified Coamatic LMWH kit); type: in vivo; parameters: dose or concentration left out as unconfirmed; settings: fondaparinux
# [11] = tested on: PT of pooled human plasma; experiment: Prothrombin time (PT) human plasma clotting assay; type: biochemical
# [12] = tested on: PT of rhesus monkey plasma; experiment: Prothrombin time in rhesus monkey plasma; type: biochemical, rhesus monkeys; settings: 250 nM rivaroxaban; baseline 17.5±1.6 sec
# [13] = in vivo; cited from earlier work
# [14] = 1 mg/kg/hr, Betrixaban alone (uM), plasma concentration, betrixaban 1.0 mg/kg/hr IV for 30 min, no antidote
# [15] = Betrixaban + antidote (uM), betrixaban plasma concentration, betrixaban infusion then r-Antidote 5 mg bolus + 5 mg/hr
molecule,measurement,setting,value
enoxaparin,extension of clotting time compared to control plasma,[1],greater than 5 fold
same,peak anticoagulation in rat plasma (Coatest LMW heparin assay),[2]; enoxaparin 1 mg/kg IV bolus,1 anti fXa U/ml
same,peak anticoagulation in rat plasma (Coatest LMW heparin assay),[2]; enoxaparin 3 mg/kg IV bolus,4 anti fXa U/ml
same,whole blood INR,"[2]; rats, enoxaparin 1, 3 and 6 mg/kg IV bolus",dose proportional extensions
same,"maximum blood loss (plateau), of normal rat blood volume",[3],approximately 5%
same,peak anti fXa activity,"[4]; human, in vivo, sc, 1 mg/kg",1.1 U/ml
same,Mean absolute bioavailability,"[4]; human, in vivo, sc",92%
same,anti-fXa level corresponding to prescribed dose,"[4]; human, in vivo",approximately 1 U/mL
protamine sulfate,reversal of enoxaparin-induced anticoagulation (plasma aPTT),"[2]; rats, enoxaparin 3.0 mg/kg, r-Antidote 5 mg bolus + 5 mg/h or protamine sulfate 0.9 mg",sustained reversal
same,reversal of blood loss due to fondaparinux,[5]; listed as Protamine,failed to display corrective activity
same,reversal of blood loss due to fondaparinux,[5]; listed as protamine,did not reverse blood loss
same,neutralization of enoxaparin activity,"[4]; slow intravenous infusion of protamine sulfate, enoxaparin prescribing information",up to 60%
"COc1ccc(NC(=O)c2ccc(C(=N)N(C)C)cc2)c(C(=O)Nc2ccc(Cl)cn2)c1 [betrixaban, [2-({4-[(dimethylamino)iminomethyl]phenyl}carbonylamino)-5-methoxyphenyl]-N-(5-chloro(2-pyridyl))carboxamide]",inhibition of fXa by betrixaban (thrombin generation),[6],about 75%
same,aPTT,[7]; 300 nM Betrixaban,61.8 s
same,aPTT,[7]; 400 nM betrixaban,66.3 s
same,extension of aPTT,[7]; 400 nM betrixaban,more than two folds
same,concentration at […],"[8]; Mean, pd-Antidote treated mice",687 ng/mL
same,concentration at […],"[8]; Mean, r-Antidote treated mice",381 ng/mL
same,concentration at […],"[8]; individual animal, r-Antidote treated mice",434 ng/mL
same,concentration at 30 min,"[9]; 1 mg/kg/hr, Betrixaban + antidote (uM), betrixaban plasma concentration, betrixaban 1.0 mg/kg/hr IV for 30 min, antidote group before antidote dosing",0.154 µM
same,concentration at 30 min,[9]; [14],0.169 µM
same,concentration at 35 min,[9]; [14],0.062 µM
same,concentration at 60 min,[9]; [14],0.045 µM
same,concentration at 90 min,[9]; [14],0.048 µM
same,concentration at 35 min,[9]; [15],1.57 µM
same,concentration at 60 min,[9]; [15],1.88 µM
same,concentration at 90 min,[9]; [15],1.19 µM
CO[C@H]1O[C@H](COS(=O)(=O)O)[C@@H](O[C@@H]2O[C@@H](C(=O)O)[C@@H](O[C@H]3O[C@H](COS(=O)(=O)O)[C@@H](O[C@@H]4O[C@H](C(=O)O)[C@@H](O[C@H]5O[C@H](COS(=O)(=O)O)[C@@H](O)[C@H](O)[C@H]5NS(=O)(=O)O)[C@H](O)[C@H]4O)[C@H](OS(=O)(=O)O)[C@H]3NS(=O)(=O)O)[C@H](O)[C@H]2OS(=O)(=O)O)[C@H](O)[C@H]1NS(=O)(=O)O [fondaparinux],anti-fXa activity expressed with enoxaparin as the standard,[10]; human plasma,0.80 U/ml enoxaparin
same,anti-fXa activity expressed with enoxaparin as the standard,[10]; rat plasma,0.66 U/ml enoxaparin
COc1ccc(-n2nc(C(N)=O)c3c2C(=O)N(c2ccc(N4CCCCC4=O)cc2)CC3)cc1 [apixaban],PT,[11]; 1 μM apixaban,16.4 s
O=C(NC[C@H]1CN(c2ccc(N3CCOCC3=O)cc2)C(=O)O1)c1ccc(Cl)s1 [rivaroxaban],PT,"[11]; 1 μM rivaroxaban, baseline PT 14.1 sec",23.4 s
same,PT (average±standard deviation),[12],32.3 ± 6.1 s
same,Reported therapeutic concentration,[13],approximately 600 nM
